Results: PubChem BioAssay (NCI)
Values joined by “and” are separate entries in the source; they are usually repeats but may differ in a detail not shown here. Identical values can stand only once.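 Step 1: Grow cells in 96-well plates. Step 2: Expose to compound for 48 hours at 5 concentrations. Step 3: Interpolate endpoints linearly; if unreached, use highest concentration. GI50 marks 50% less growth. The concentration for full growth arrest is given as TGI.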 *1 amine or outer side, *2 acyl side, *3 side chain or, on linkers, in order; H or OH if unused. Where a SMILES comes first, the peptide text is derived from it. Bridges are numbered along the chain shown (N, C = ends). Roman numbers before positions name the chains, in order. [ ]: non-standard residue; d: D form. Actinocin(9to1) = Cc1c2oc3c(C)ccc(C(=O)[*:1])c3nc-2c(C(=O)[*:2])c(N)c1=O; NMeV = CN[CH](C(=O)O)C(C)C; Sar = CNCC(=O)O

Test system: MDA-MB-468 breast
Test: DTP human tumour cell line panel, 48 h

Row | SMILES | GI50 | TGI
1 | CCCCCCCCCCCC[N+](C)(C)Cc1ccccc1 | 508 nM | 4.25 µM
2 | COc1ccc(C(C#N)=C2C=CC(=NO)C=C2)cc1 | 833 nM | 4.56 µM
3 | CN(C)C[C@H]1CCn2c(c(C3=C(c4cn(C)c5ccccc45)C(=O)NC3=O)c3ccccc32)C1 | 3850 nM | 7.86 µM
4 | CC(CN(C)C)S(=O)(=O)c1ccc(-c2cnc(N)c(C(=O)Nc3ccccc3)n2)cc1 (centres undefined) | 4980 nM | 20.4 µM
5 | CN(C)C(=S)/N=c1\ssc(=S)n1Cc1cccs1 | 4070 nM | > 100 µM
6 | CCC#CC[C@H](O)C/C=C1/C(=O)C=C[C@@H]1C/C=C\CCCC(=O)OC | 1230 nM | 3.98 µM
7 | C=C(C)[C@@H]1CC[C@]2(COCCCNCCCN)CC[C@]3(C)[C@H](CC[C@@H]4[C@@]5(C)CC[C@H](OCCCN)C(C)(C)[C@@H]5CC[C@]43C)[C@@H]12 | 882 nM | 1.74 µM
8 | Cc1c2oc3c(C)ccc(C(=O)OC(C)C4NC(=O)C(C(C)C)N(C)C(=O)CN(C)C(=O)C5CCCN5C(=O)C(C(C)C)NC4=O)c3nc-2c(C(=O)OC(C)C2NC(=O)C(C(C)C)N(C)C(=O)CN(C)C(=O)C3CCCN3C(=O)C(C(C)C)NC2=O)c(N)c1=O (centres undefined) (I: cyclo([Sar][NMeV]TVP) / II: cyclo([Sar][NMeV]TVP); linker I:3-II:3 via Actinocin(9to1); configuration not given here) | < 10 nM | 0.0152 µM
9 | CC/C=C\C[C@H](O)C/C=C1/C(=O)C=C[C@@H]1C/C=C\CCCC(=O)OC(C)C | 1290 nM | 3.06 µM
10 | O=P(O)(O)OCC1OC(n2cnc3c(NCc4ccco4)ncnc32)C(O)C1O (centres undefined) | 2270 nM | 7.66 µM
11 | O=C1NCN(c2ccccc2)C12CCN(CCCC(c1ccc(F)cc1)c1ccc(F)cc1)CC2 | 1770 nM | 4.37 µM
12 | Cc1cc(C(=O)Nc2cc(Oc3ccc4nc(NC(=O)C5CC5)cn4n3)ccc2C)n(C)n1 | 5510 nM | > 10 µM
13 | COc1cc(-c2nn(-c3cccc(NC(=O)NCCNS(=O)(=O)c4ccc(Cl)cc4)c3)cc2-c2ccncc2)ccc1Cl | 332 nM | 1.67 µM
14 | Clc1ccccc1[C@@H]1C[C@@H]2Cc3cc(Br)c4ccccc4c3N1O2 | 1810 nM | 5.67 µM
15 | COc1cccc(-n2ncc3c(N/N=C/c4ccc(C)cc4)ncnc32)c1 | > 25000 nM | > 25 µM
16 | COc1cc(OC)c(/C=C/C(=O)c2ccc(Nc3ncnc4ccccc34)cc2)c(OC)c1 | 306 nM | 1.55 µM
17 | COc1ccc(-c2nsc3c2NC(=O)CC3c2ccc3c(c2)OCCO3)cc1 (centres undefined) | 328 nM | > 100 µM
18 | c1ccc2cc(Cn3cc[n+](Cc4ccc5ccccc5c4)c3)ccc2c1 | 250 nM | 0.849 µM
19 | C[C@]12CC[C@@H]3c4ccc(O)cc4CC[C@H]3[C@@H]1CC[C@@H]2NS(=O)(=O)c1cccc(Cl)c1 | 1980 nM | 8.12 µM
20 | COc1cccc(Sc2ccc([N+](=O)[O-])c3no[n+]([O-])c23)c1 | 2420 nM | 7.61 µM

Row | SMILES | GI50 | TGI
21 | CCCCCCCN(CCCCCCC)C(=N)c1ccnc2ccccc12 | 1700 nM | 3.37 µM
22 | CCN(CC)CCCOc1ccc2ncnc(Nc3ccc(Oc4cccc(C(F)(F)F)c4)c(Cl)c3)c2c1 | 879 nM | 2.33 µM
23 | CC(=O)O[C@@]12CO[C@@H]1C[C@H](O)[C@@]1(C)C(=O)[C@H](O)C3=C(C)[C@@H](OC(=O)[C@H](O)[C@@H](NC(=O)OC(C)(C)C)c4ccccc4)C[C@@](O)([C@@H](OC(=O)c4ccccc4)C12)C3(C)C (some centres undefined) | < 5 nM | –
24 | COC12C=C/C(=C(/C(=O)OCCSc3ccnn3C)C(=O)CCCCCCCCC3(OC)C=C/C(=C(/C(=O)OCCSc4ccnn4C)C(=O)CCCCCCCC1)O3)O2 | 951 nM | 4.13 µM
25 | CC(C)(C)Nc1nc2c(OCCc3ccccc3)cccn2c1-c1ccc(Cl)cc1 | 16900 nM | 45.3 µM
26 | C=C1C(=O)O[C@H]2[C@H]1CC/C(COC(=O)c1cn(C)c3ccccc13)=C\CC[C@@]1(C)O[C@@H]21 | 446 nM | 1.99 µM
27 | C=C1C(=O)O[C@H]2[C@H]1CC/C(Cn1cc(Cc3c[nH]c4ccccc34)nn1)=C\CC[C@@]1(C)O[C@@H]21 | 1450 nM | 3.88 µM
28 | O=C1Nc2ccccc2/C1=C\c1cccc(/C=C2/C(=O)Nc3ccccc32)n1 | 336 nM | 1.38 µM
29 | N#Cc1cnc2ccc(-c3cnc4n[nH]nc4c3)cc2c1N1CCc2cc(F)c(Cl)cc21 | 1990 nM | 10.7 µM
30 | CC(=Nc1ccccc1)C1=C(O)C(Cc2cccc(F)c2)NC1=O (centres undefined) | 36.4 nM | 62 µM
31 | Oc1[nH]c(N=C2N=c3ccccc3=N2)c2ccccc12 | 11200 nM | 31.2 µM
32 | O=C1/C(=C/c2ccc(F)c(F)c2)CN(C(=O)C(Cl)Cl)C/C1=C\c1ccc(F)c(F)c1 | 158 nM | 0.352 µM
33 | O=C(Nc1ccc2ncnc(Nc3ccc(Oc4cccc(F)c4)c(Cl)c3)c2c1)c1ccc(CN2CCOCC2)cc1 | 1500 nM | 6.57 µM
34 | CCCCC[C@H]1CC=C2C(=O)C=C[C@@H]2CC=CCCCC(=O)O[C@@H](CCCCC)CC=C2C(=O)C=C[C@@H]2CC=CCCCC(=O)O[C@@H](CCCCC)CC=C2C(=O)C=C[C@@H]2CC=CCCCC(=O)O1 | 272 nM | 0.847 µM
35 | CCN1C(=O)N(CC)C2C1NN=c1s/c(=C\c3cccs3)c(=O)n12 (centres undefined) | 113 nM | > 100 µM
36 | CCN1C(=O)N(CC)C2SC(N/N=C/c3ccccc3F)=NC21 (centres undefined) | 296 nM | 24.7 µM
37 | c1cc(CN2CCCNCCNCCCNCC2)ccc1CN1CCCNCCNCCCNCC1 | > 100000 nM | > 100 µM
38 | CN(C)c1ccc(C(=N)c2ccc(N(C)C)cc2)cc1 | 509 nM and 759 nM | 3 µM and 3.52 µM
39 | C=CCNc1nc(O)c(/C=C2\C=Nc3ncccc32)s1 | 1920 nM | 4.13 µM
40 | Nc1ncnc2c1c(-c1ccc(Oc3ccccc3)cc1)nn2C[C@H]1SSC[C@@H]1O | 351 nM | 1.63 µM
